Literature values in US20240350389A1, “METHOD FOR DYEING KERATINOUS MATERIAL, IN PARTICULAR HUMAN HAIR” (HENKEL AG & CO. KGAA, priority 2021, published 2024).

Settings: 25° C.

water solubility	Compound	solubility in water
	Nc1cc(S(=O)(=O)[O-])cc2cc(S(=O)(=O)[O-])c(N=Nc3ccccc3)c(O)c12.[Na+].[Na+] [Acid Red 33, disodium salt of 5-amino4-hydroxy-3-(phenylazo)-naphthalene2,7-disulfonate]	2500 µg/mL
more than 20 wt %	CCN(Cc1cccc(S(=O)(=O)[O-])c1)c1ccc(C(=C2C=CC(=[N+](CC)Cc3cccc(S(=O)(=O)[O-])c3)C=C2)c2ccccc2S(=O)(=O)[O-])cc1.[Na+].[Na+] [Acid Blue 9]	
	O=S(=O)([O-])c1ccc(N=Nc2c(O)ccc3ccccc23)cc1.[Na+] [Acid Orange 7, sodium salt of 4-[(2-hydroxy-1-naphthyl)azo]benzene sulfonate]	more than 7 g/L
	O=[N+]([O-])c1cc([N+](=O)[O-])c2ccc(S(=O)(=O)O)cc2c1O.[Na].[Na] [Acid yellow 1, 8-hydroxy-5,7-dinitro-2-naphthalenesulfonic acid disodium]	at least 40 g/L
